Source: patent US12233060B2, “Inhibitors of Ataxia-Telangiectasia Mutated and Rad3-related protein kinase (ATR) for use in methods of treating cancer” (THE INSTITUTE OF CANCER RESEARCH: ROYAL CANCER HOSPITAL, priority 2016, dated 2025)

What was measured:
HCT116 cells = experiment: DNA fibre analysis, replication fork speed in HCT116 cells with SS18-SSX1; type: cell-based, human; conditions: 0.1 μM for two hours
Experimental: FIG. 10. ATR inhibitors elicit replication fork stress in SS tumour cells. […] Error bars represent SEM from triplicate experiments. p values were derived from Student's t tests. B. Western blot illustrating PARP1 cleavage in SYO1 cells exposed to VX970 for 24 hours. C. Western blot illustrating H2AX phosphorylation (γH2AX) in SYO1 cells exposed to VX970 (0.1 μM). D. Confocal microspcopy images illustrating H2AX phosphorylation in SYO1 cells exposed to VX970 (0.1 μM, 24 hours). E. Bar chart depicting data from (D). Error bars represent SEM from 100 images. p values were derived from Student's t tests. F. Replication fork speeds in SYO1 cells exposed to 0.1 μM VX970 for two hours. p value was derived from a Student's t test. G. Replication fork speeds in HCT116 cells exposed to 0.1 μM VX970 for two hours in the presence and absence of ectopic expression of a SS18-SSX1 fusion protein. p values were derived from Student's t tests. Expression of SS18-SSX1 or exposure to VX970 reduced fork speed. Combined SS18-SSX1 expression and VX970 exposure enhanced the reduction in fork speed. H and I. FACS plots from SYO1 cells exposed to VX970.
ATRi induced cytotoxicity in tumour cells derived from carcinomas is often associated with an increase in replication fork stress.

[1] = test system: HCT116 ARID1A+/+ and ARID1A−/− cells; experiment: γH2AX western blot; type: cell-based, human; conditions: VX-970 0.5 uM; ARID1A−/− vs ARID1A+/+
Experimental: (§1) FIG. 5. ATRi effect on cell cycle progression, chromosomal instability, DNA damage and apoptosis. A. Barchart illustrating G2/M fraction in HCT116 ARID1A^+/+ and ARID1A^−/− cells synchronized in G1/early S phase by double thymidine block and released into fresh media containing DMSO or VX-970 (500 nM). The percentage of cells in G2/M was measured by FACS following PI staining. […] Cells were stained with DAPI. A minimum of 50 anaphases were scored in 3 biological replicate experiments. *p=0.023, Student's t-test. C. Bar chart illustrating frequency of anaphase bridges in TOV21G cells exposed to VX-970 (0.5 uM) or DMSO for 8 hours prior to fixation. Experiment performed as for (B). p=0.006 Student's t-test. D. Mitotic spread images from HCT116 ARID1A^+/+ and ARID1A^−/− cells following exposure to either DMSO or VX-970 (1 uM). Scale bar represents 20 um. E. Bar chart illustrating extent of chromosomal abnormalities in HCT116 ARID1A^+/+ and ARID1A^−/− cells exposed to VX-970 (1 uM). *p<0.05, Student's t-test. F. Western blot illustrating γH2AX in HCT116 ARID1A^+/+ and ARID1A^−/− cells exposed to VX-970 (0.5 uM) for the indicated time prior to cell lyses. G. Bar chart illustrating apoptotic fraction in cells exposed to increasing concentrations of VX-970 for 24 hours. Experiment as per FIG. 3I. H. Western blot illustrating PARP cleavage in HCT116 ARID1A^+/+ and ARID1A^−/− cells exposed to VX-970. […]

[2] = test system: Arid1a+/+ and Arid1a−/− mouse embryonic stem (ES) cells; experiment: Clonogenic survival of mouse Arid1a isogenic ES cells; type: cell-based; conditions: p<0.001 ANOVA
Experimental: FIG. 2. In vitro ARID1A/ATR synthetic lethality. A. Chemical structure of VX-970. B. Western blot of ARID1A in human ARID1A isogenic HCT116 cells. C. Image of colonies in 6 well-plate clonogenic assay. HCT116 ARID1A isogenic (^+/+ and ^−/−) cell lines were exposed to increasing concentrations of the VE-821 (0, 0.1, 1 uM) and VX-970 (0, 0.01, 0.05 uM) for 14 days. D and E. Dose response clonogenic survival curve of HCT116 ARID1A isogenic (^+/+ and ^−/−) cell lines exposed to increasing concentrations of the VE-821 and VX-970 for 14 days. Error bars represent SD from triplicate experiments, ANOVA p-value of <0.0001. F. Area under curve (AUC) box whisker comparison plot for human tumor cell lines exposed to VX-970 for five days. ARID1A wild type tumor cell lines (n=15) were compared to ARID1A mutant cell lines (n=9). Student's t-test p=0.00594. G. Dose response clonogenic survival curve of mouse Arid1a isogenic ES cell lines. Experiment was performed as per (C). Error bars represent SD from triplicate experiments, ANOVA p value of <0.0001. H. Western blot of Arid1a protein expression in mouse ES Arid1a isogenic cells. […]
Short-term survival assays were performed in 384-well plates. […] Drug was added 24 h after seeding and cells were continuously exposed to the drug for five days, after which cell viability was estimated using CellTitre-Glo luminescence (Promega). […] Colonies were counted manually. […]

[3] = test system: synovial sarcoma PDX SA13412; experiment: Synovial sarcoma patient-derived xenograft treatment; type: in vivo, mice
[4] = test system: HCT116 ARID1A isogenic cells and TOV21G cells; experiment: Anaphase bridge analysis; type: cell-based, human; conditions: 0.5 uM, 8 hours
Experimental: as §1

For `CNCc1ccc(-c2cc(-c3nc(-c4ccc(S(=O)(=O)C(C)C)cc4)cnc3N)on2)cc1` [VX-970, 5-[4-(Isopropylsulfonyl)phenyl]-3-(3-{4-[(methylamino)methyl]phenyl}-1,2-oxazol-5-yl)-2-pyrazinamine], the “decrease in replication fork speed with SS18-SSX1 expression plus VX970” value (HCT116 cells) was “enhanced by the addition of VX970”, the γH2AX induction [1] was “more pronounced” and the “selective targeting of Arid1a−/− ES cells in clonogenic assays” value [2] was “selectively targeted Arid1a^−/− ES cells”. The “tumour growth in PDX SA13412” value ([3]; established PDX, ANOVA p<0.0001) was “inhibition of tumour growth”, the “survival time of PDX-bearing mice” value ([3]; log rank Mantel p=0.026) was “increase in survival time” and the “frequency of anaphase bridges” value [4] was “increased level of anaphase bridges”.
